Source: PubChem BioAssay AID256 (DTP/NCI, 2004)
Where “and” joins values, the source holds several entries; their conditions need not be identical. Identical values can stand only once. Inconclusive results and toxic doses are left out. Rule for the calls: active = survival T/C of 150% or more; inactive = T/C below 125% in these data.

Test system: CD2F1 mice, L1210 leukemia ip, survival T/C
Assay: NCI In Vivo Anticancer Drug Screen. Data for tumor model L1210 Leukemia (intraperitoneal) in CD2F1 (CDF1) mice
Conditions: endpoint: mean survival time, higher = longer survival
How it was run: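 In this screen, transplantable tumors were grown in mice given either the compound or its vehicle. Results were expressed as the treated measurement relative to the control measurement.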

[1] = dose: 50.0 mg/kg/injection, schedule: Q01DX009 (ip), vehicle: water
[2] = dose: 100.0 mg/kg/injection, schedule: Q01DX009 (ip), vehicle: saline with Tween-80
[3] = dose: 200.0 mg/kg/injection, schedule: Q01DX009 (ip), vehicle: saline with Tween-80
[4] = dose: 100.0 mg/kg/injection, schedule: Q04DX003 (ip), vehicle: saline with Tween-80
[5] = dose: 200.0 mg/kg/injection, schedule: Q04DX003 (ip), vehicle: saline with Tween-80
[6] = dose: 100.0 mg/kg/injection, schedule: Q01DX001 (ip), vehicle: saline with Tween-80
[7] = dose: 200.0 mg/kg/injection, schedule: Q01DX001 (ip), vehicle: saline with Tween-80
[8] = dose: 400.0 mg/kg/injection, schedule: Q01DX001 (ip), vehicle: saline with Tween-80
[9] = dose: 400.0 mg/kg/injection, schedule: Q04DX003 (ip), vehicle: saline with Tween-80
[10] = dose: 12.5 mg/kg/injection, schedule: Q01DX009 (ip), vehicle: saline
[11] = dose: 25.0 mg/kg/injection, schedule: Q01DX009 (ip), vehicle: saline
[12] = dose: 50.0 mg/kg/injection, schedule: Q01DX009 (ip), vehicle: saline

Measured: T/C

O=C1NC(CN2CCOCC2)C(=O)NC1CN1CCOCC1 (configuration not stated)
inactive: dose: 3.13 mg/kg/injection, schedule: Q01DX009 (ip), vehicle: water 105 % of control | dose: 6.25 mg/kg/injection, schedule: Q01DX009 (ip), vehicle: water 105 % of control | dose: 12.5 mg/kg/injection, schedule: Q01DX009 (ip), vehicle: water 103 % of control | dose: 25.0 mg/kg/injection, schedule: Q01DX009 (ip), vehicle: water 100 % of control | [1] 101 % of control | dose: 100.0 mg/kg/injection, schedule: Q01DX009 (ip), vehicle: water 106 % of control

CCN(C(=O)Nc1ccc(Cl)cc1)c1ccccc1C
inactive: [2] 97 % of control | [3] 94 % of control | dose: 400.0 mg/kg/injection, schedule: Q01DX009 (ip), vehicle: saline with Tween-80 90 % of control

COn1c(-c2ccccc2)nc2c1C(=O)N(C)CN2C
inactive: dose: 12.5 mg/kg/injection, schedule: Q01DX005 (ip), vehicle: other 96 % of control | dose: 25.0 mg/kg/injection, schedule: Q01DX005 (ip), vehicle: other 96 % of control | dose: 50.0 mg/kg/injection, schedule: Q01DX005 (ip), vehicle: other 96 % of control | dose: 100.0 mg/kg/injection, schedule: Q01DX005 (ip), vehicle: other 95 % of control | dose: 200.0 mg/kg/injection, schedule: Q01DX005 (ip), vehicle: other 96 % of control

CC(C)[C@](O)(C(=O)OCC1=CC[N+]2([O-])CC[C@@H](O)[C@@H]12)[C@H](C)O (some centres not stated)
inactive: [1] 116 % of control | dose: 750.0 mg/kg/injection, schedule: Q01DX001 (ip), vehicle: saline 96 % of control | dose: 1000.0 mg/kg/injection, schedule: Q01DX001 (ip), vehicle: saline 101 % of control | dose: 1250.0 mg/kg/injection, schedule: Q01DX001 (ip), vehicle: saline 97 % of control | dose: 1500.0 mg/kg/injection, schedule: Q01DX001 (ip), vehicle: saline 105 % of control | dose: 2000.0 mg/kg/injection, schedule: Q01DX001 (ip), vehicle: saline 117 % of control | dose: 3000.0 mg/kg/injection, schedule: Q01DX001 (ip), vehicle: saline 115 % of control

O=C1OC(Cc2ccccc2)(c2ccccc2)c2ccccc21 (configuration not stated)
inactive: [4] 88 % of control | [5] 88 % of control

Cc1cc(N(CCCOS(C)(=O)=O)CCCOS(C)(=O)=O)ccc1C=Nc1ccc2ccccc2c1
inactive: dose: 25.0 mg/kg/injection, schedule: Q01DX009 (ip), vehicle: saline with Tween-80 93 % of control | dose: 50.0 mg/kg/injection, schedule: Q01DX009 (ip), vehicle: saline with Tween-80 93 % of control | [2] 88 % of control

CCOc1ccccc1Nc1cc(=O)[nH]c(=O)[nH]1
inactive: [6] 100 % of control | [7] 97 % of control | [8] 92 % of control

COc1ccc2nc3cc(Cl)ccc3c(Nc3ccc(NS(C)(=O)=O)cc3)c2n1
inactive: dose: 12.5 mg/kg/injection, schedule: Q01DX009 (ip), vehicle: other 96 % of control | dose: 25.0 mg/kg/injection, schedule: Q01DX009 (ip), vehicle: other 104 % of control | dose: 50.0 mg/kg/injection, schedule: Q01DX009 (ip), vehicle: other 96 % of control | dose: 100.0 mg/kg/injection, schedule: Q01DX009 (ip), vehicle: other 94 % of control

NC(=O)CSCC(N)=O
inactive: [4] 94 % of control | [5] 96 % of control | [9] 90 % of control

N#CC[CH2][Sn]([Br])([Br])[CH2]CC#N
inactive: dose: 0.78 mg/kg/injection, schedule: Q01DX009 (ip), vehicle: saline 97 % of control | dose: 1.56 mg/kg/injection, schedule: Q01DX009 (ip), vehicle: saline 94 % of control | dose: 3.12 mg/kg/injection, schedule: Q01DX009 (ip), vehicle: saline 92 % of control and 98 % of control | dose: 6.25 mg/kg/injection, schedule: Q01DX009 (ip), vehicle: saline 105 % of control and 107 % of control | [10] 94 % of control and 101 % of control and 107 % of control | [11] 95 % of control and 97 % of control | [12] 89 % of control

CN1CC[C@]23c4c5ccc(O)c4O[C@H]2C(=O)CC[C@H]3[C@H]1C5
inactive: [10] 95 % of control | [11] 102 % of control | [12] 93 % of control

CC(C)(C)CC(C)(C)c1ccc(OCCOc2ccccc2NS(=O)(=O)c2ccc(N)cc2)cc1
inactive: dose: 100.0 mg/kg/injection, schedule: Q01DX001 (ip), vehicle: Klucel (hydroxypropylcellulose) (HPC) 98 % of control | dose: 200.0 mg/kg/injection, schedule: Q01DX001 (ip), vehicle: Klucel (hydroxypropylcellulose) (HPC) 96 % of control

COc1ccc(NC(=O)N(CCO)c2ccccc2)c(Cl)c1
inactive: dose: 50.0 mg/kg/injection, schedule: Q01DX009 (ip), vehicle: Klucel (hydroxypropylcellulose) (HPC) 107 % of control | dose: 100.0 mg/kg/injection, schedule: Q01DX009 (ip), vehicle: Klucel (hydroxypropylcellulose) (HPC) 104 % of control | dose: 200.0 mg/kg/injection, schedule: Q01DX009 (ip), vehicle: Klucel (hydroxypropylcellulose) (HPC) 107 % of control

CCOC(=O)/C(C(C)=N)=C(\C)O
inactive: [6] 100 % of control | [2] 101 % of control | [7] 98 % of control | [3] 104 % of control | [8] 105 % of control

CCOC(=O)C1(C(C)CC)SCCCS1 (configuration not stated)
inactive: dose: 100.0 mg/kg/injection, schedule: Q04DX002 (ip), vehicle: saline with Tween-80 97 % of control | dose: 200.0 mg/kg/injection, schedule: Q04DX002 (ip), vehicle: saline with Tween-80 97 % of control | dose: 400.0 mg/kg/injection, schedule: Q04DX002 (ip), vehicle: saline with Tween-80 94 % of control

NC(=O)C(CC(=O)OCc1ccccc1)NC(=O)OCc1ccccc1 (configuration not stated)
inactive: dose: 100.0 mg/kg/injection, schedule: Q04DX003 (ip), vehicle: saline + alcohol 97 % of control | dose: 200.0 mg/kg/injection, schedule: Q04DX003 (ip), vehicle: saline + alcohol 97 % of control | dose: 400.0 mg/kg/injection, schedule: Q04DX003 (ip), vehicle: saline + alcohol 97 % of control

CC(=O)Oc1ccc(/C=C2\CCOC2=O)cc1
inactive: dose: 7.82 mg/kg/injection, schedule: Q01DX005 (ip), vehicle: Klucel (hydroxypropylcellulose) (HPC) 112 % of control | dose: 15.63 mg/kg/injection, schedule: Q01DX005 (ip), vehicle: Klucel (hydroxypropylcellulose) (HPC) 101 % of control | dose: 31.25 mg/kg/injection, schedule: Q01DX005 (ip), vehicle: Klucel (hydroxypropylcellulose) (HPC) 106 % of control | dose: 62.5 mg/kg/injection, schedule: Q01DX005 (ip), vehicle: Klucel (hydroxypropylcellulose) (HPC) 107 % of control | dose: 125.0 mg/kg/injection, schedule: Q01DX005 (ip), vehicle: Klucel (hydroxypropylcellulose) (HPC) 109 % of control | dose: 250.0 mg/kg/injection, schedule: Q01DX005 (ip), vehicle: Klucel (hydroxypropylcellulose) (HPC) 109 % of control

CCOC(=O)C1CC2(CC(C(N)=O)C2)C1 (configuration not stated)
inactive: dose: 100.0 mg/kg/injection, schedule: Q01DX001 (ip), vehicle: saline 103 % of control | dose: 200.0 mg/kg/injection, schedule: Q01DX001 (ip), vehicle: saline 100 % of control | dose: 400.0 mg/kg/injection, schedule: Q01DX001 (ip), vehicle: saline 93 % of control

COc1ccc2c(OC)cccc2c1
inactive: dose: 100.0 mg/kg/injection, schedule: Q04DX003 (ip), vehicle: other 102 % of control | dose: 200.0 mg/kg/injection, schedule: Q04DX003 (ip), vehicle: other 112 % of control | dose: 400.0 mg/kg/injection, schedule: Q04DX003 (ip), vehicle: other 101 % of control

Cc1cc(C)cc(OCCOCCOc2cc(C)cc(C)c2)c1
inactive: [4] 94 % of control | [5] 97 % of control | [9] 100 % of control
